SMILES strings stand for the structures. Like-named read-outs stand apart in the source and are kept apart here.

We go through 53 compounds from PMC8041284, “Tunable Methacrylamides for Covalent Ligand Directed Release Chemistry” (Journal of the American Chemical Society, 2021).

In this assay the target is BTK (Homo sapiens, UniProt Q06187). In words: biochemical.
[1] abbreviates: read-out: BTK inhibition (%), 0.75 uM BTK, […] probe 3l, 15 min preincubation.

Sequence of BTK (Q06187 402-655 limits assumed): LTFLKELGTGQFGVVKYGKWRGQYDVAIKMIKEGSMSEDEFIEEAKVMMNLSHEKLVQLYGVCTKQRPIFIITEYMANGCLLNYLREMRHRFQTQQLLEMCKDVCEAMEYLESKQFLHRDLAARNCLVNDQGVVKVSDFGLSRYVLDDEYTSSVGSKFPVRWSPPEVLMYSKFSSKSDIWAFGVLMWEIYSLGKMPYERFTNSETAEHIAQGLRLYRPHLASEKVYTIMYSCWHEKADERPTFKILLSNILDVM

On to `C=C1CC[C@H]2O[C@]2(C)CC[C@@H]2[C@@H]1CC2(C)C` [PCM-0214945], for which the inhibition at 10 µM under setting [1] was -11.7%.
Same read-out and setting: for `CC1(C)[C@@H]2CC[C@@]1(C)[C@@H](O)C2` [PCM-0214946] the value was 3.1%; for `Oc1ccc(CC2NCCc3cc(O)c(O)cc32)cc1` (centres unmarked) [PCM-0214948], -5.4%.
Take `COc1ccc(CC(=O)O)cc1OC` [PCM-0214949]: the inhibition at 10 µM under setting [1] is -0.8%.
Same read-out and setting: for `OC[C@H]1NC[C@H](O)[C@@H](O)[C@@H]1O` [PCM-0214950] the value was -9.3%.
Take `C[C@@H]1O[C@H]2O[C@H]3[C@@H](OC[C@H](O)[C@@H]3O)OC(=O)[C@]34CCC(C)(C)C[C@H]3C3=CC[C@H]5[C@@]6(C)C[C@H](O)[C@H](O[C@@H]7O[C@H](CO)[C@@H](O)[C@H](O)[C@H]7O[C@@H]7OC[C@H](OC(=O)C[C@](C)(O)CC(=O)O[C@@H]1[C@@H](O[C@@H]1OC[C@@H](O)[C@H](O)[C@H]1O)[C@H]2O)[C@H](O)[C@H]7O)[C@@](C)(CO)[C@@H]6CC[C@@]5(C)[C@]3(C)CC4` [PCM-0214951]: the inhibition at 10 µM under setting [1] was 6.2%.
`C[C@H](CC[C@@H](O[C@@H]1O[C@H](CO[C@@H]2O[C@H](CO)[C@@H](O)[C@H](O)[C@H]2O)[C@@H](O)[C@H](O)[C@H]1O[C@@H]1O[C@H](CO)[C@@H](O)[C@H](O)[C@H]1O)C(C)(C)O)[C@H]1CC[C@@]2(C)[C@@H]3CC=C4[C@@H](CC[C@H](O[C@@H]5O[C@H](CO[C@@H]6O[C@H](CO)[C@@H](O)[C@H](O)[C@H]6O)[C@@H](O)[C@H](O)[C@H]5O)C4(C)C)[C@]3(C)[C@H](O)C[C@]12C` [PCM-0214952]: the inhibition at 10 µM under setting [1] was -2.3%.
The same measure, in the same setting: for `C/C=C(/C)C(=O)O[C@H]1Cc2cc3ccc(=O)oc3cc2OC1(C)C` [PCM-0214953] the value was 0.8%; for `CN1C2=C3N=c4ccccc4=C3CCN2C(=O)c2ccccc21` [PCM-0214954], 7%.
On to `COc1cc2c(=O)c(-c3ccc(O)cc3)coc2cc1O[C@@H]1O[C@H](CO)[C@@H](O)[C@H](O)[C@H]1O` [PCM-0214955], for which the inhibition at 10 µM under setting [1] stood at 15.6%.
Take `OCCc1ccc(O)c(O)c1` [PCM-0214956]: the inhibition at 10 µM under setting [1] is -2.3%.
Still for that read-out and setting: for `O=C(O)/C=C/CCCCCCCO` [PCM-0214957] the value was 3.4%; for `Cc1cc(O)cc(O[C@@H]2O[C@H](CO)[C@@H](O)[C@H](O)[C@H]2O)c1` [PCM-0214958], -10.1%.
Consider `C=C1C(=O)O[C@@H]2C[C@@]3(C)CCCC(=C)[C@@H]3C[C@H]12` [PCM-0214959], for which, under setting [1], the inhibition at 10 µM amounted to 15.9%.
In the case of `CC1=C(/C=C/C(C)=C/C=C/C(C)=C/C=C/C=C(C)/C=C/C=C(C)/C=C/C2=C(C)C(=O)[C@@H](O)CC2(C)C)C(C)(C)C[C@H](O)C1=O` [PCM-0214960], under setting [1], the inhibition at 10 µM came out at 16.6%.
Same read-out and setting: for `CCCCC[C@H](O)CC(=O)CCc1ccc(O)c(OC)c1` [PCM-0214961] the value was 1.6%; for `COc1ccc(-c2oc3c(CC=C(C)C)c(O)cc(O)c3c(=O)c2O[C@@H]2O[C@@H](C)[C@H](O)[C@@H](O)[C@H]2O)cc1` [PCM-0214963], 6.2%.
On to `COc1cc(/C=C/C(=O)O[C@H]2CC[C@]34C[C@]35CC[C@]3(C)[C@@H]([C@H](C)CCC=C(C)C)CC[C@@]3(C)[C@@H]5CC[C@H]4C2(C)C)ccc1O` [PCM-0214964], for which, under setting [1], the inhibition at 10 µM was found to be 16.3%.
Take `CC1(C)CCCC2(C)OC(=O)C=C12` (centres unmarked) [PCM-0214965]: under setting [1], the inhibition at 10 µM came to 8.6%.
In the case of `C[N+]1(C)CCC[C@H]1C(=O)[O-]` [PCM-0214966], under setting [1], the inhibition at 10 µM amounted to 7.8%.
Same read-out and setting: for `C[C@@H]1O[C@@H](O[C@H]2[C@H](O[C@H]3CC[C@@]4(C)[C@@H](CC[C@]5(C)[C@@H]4CC=C4[C@@H]6CC(C)(C)CC[C@]6(C(=O)O)CC[C@]45C)[C@]3(C)CO)OC[C@H](O)[C@@H]2O)[C@H](O)[C@H](O)[C@H]1O` [PCM-0214969] the value was -10.9%.
For `O=c1c2cc(O[C@@H]3O[C@H](CO)[C@@H](O)[C@H](O)[C@H]3O)c(O)cc2oc2cc(O)c([C@@H]3O[C@H](CO)[C@@H](O)[C@H](O)[C@H]3O)c(O)c12` [PCM-0214972], the inhibition at 10 µM under setting [1] was -3.1%.
The same measure, in the same setting: for `CC1(C)OC(=O)C=C[C@]2(C)[C@H]3CC[C@@]4(C)[C@H](c5ccoc5)OC(=O)[C@H]5O[C@]54[C@]3(C)C(=O)C[C@@H]12` [PCM-0214973] the value was 11.7%; for `CC1(C)C=Cc2c(ccc3c2OC[C@@H](c2ccc(O)cc2O)C3)O1` [PCM-0214974], 70.3%.
On the same count and under the same terms, for `COc1cc(C[C@@H](COC2OC(CO)C(O)C(O)C2O)[C@@H](COC2OC(CO)C(O)C(O)C2O)Cc2ccc(O)c(OC)c2)ccc1O` (some centres unmarked) [PCM-0214976] the value was 2.3%.
On to `COC1=C[C@]23CCCN2CCc2cc4c(cc2[C@@H]3[C@@H]1O)OCO4` [PCM-0214978], for which the inhibition at 10 µM (read-out: BTK inhibition (%)) was found to be 0%.
`O=C1C[C@@H](c2ccc(O)cc2)Oc2cc(O)ccc21` [PCM-0214979]: the inhibition at 10 µM under setting [1] is -9.3%.
`O=C1C[C@@H](c2ccc(O[C@@H]3O[C@H](CO)[C@@H](O)[C@H](O)[C@H]3O)cc2)Oc2cc(O)ccc21` [PCM-0214980]: the inhibition at 10 µM under setting [1] turned out to be 10.9%.
Still for that read-out and setting: for `CC(=O)O[C@@]12CO[C@@H]1C[C@H](O)[C@@]1(C)C(=O)[C@H](O)C3=C(C)[C@@H](OC(=O)[C@H](O)[C@@H](NC(=O)c4ccccc4)c4ccccc4)C[C@@](O)([C@@H](OC(=O)c4ccccc4)[C@H]21)C3(C)C` [PCM-0214981] the value was 9.3%; for `O=C(O)c1ccc(O)cc1` [PCM-0214982], -10.9%; for `O=c1[nH]cnc2c1ncn2[C@H]1C[C@H](O)[C@@H](CO)O1` [PCM-0214983], 0%.
Same read-out and setting: for `CC1(C)CC[C@]2(C(=O)O)[C@H](O)C[C@]3(C)C(=CC[C@@H]4[C@@]5(C)CC[C@H](O)C(C)(C)[C@@H]5CC[C@]43C)[C@@H]2C1` [PCM-0214984] the value was 24.8%; for `COc1ccc(-c2cc(=O)c3c(O)c(OC)c(O)cc3o2)cc1OC` [PCM-0214985], 72.4%.
Take `CC(=O)OCCc1ccc(O)c(O)c1` [PCM-0214986]: the inhibition at 10 µM under setting [1] is -9.7%.
Consider `O=C(O)CCc1ccc(O)cc1O` [PCM-0214987], for which the inhibition at 10 µM under setting [1] was -10.9%.
With `C[C@H]1CC(=O)C[C@@H]2CC[C@H]3[C@@H]4CC[C@H](O)[C@@]4(C)CC[C@@H]3[C@]21C` [PCM-0214988], the inhibition at 10 µM (read-out: BTK inhibition (%)) was -20.2%.
In the case of `CC(C)=CCC[C@](C)(O[C@@H]1O[C@H](CO)[C@@H](O)[C@H](O)[C@H]1O)[C@H]1CC[C@]2(C)[C@@H]1[C@H](O)C[C@@H]1[C@@]3(C)CC[C@H](O)C(C)(C)[C@@H]3[C@@H](O[C@@H]3O[C@H](CO)[C@@H](O)[C@H](O)[C@H]3O[C@@H]3O[C@@H](C)[C@H](O)[C@@H](O)[C@H]3O)C[C@]12C` [PCM-0214989], the inhibition at 10 µM under setting [1] is -8.6%.
Still for that read-out and setting: for `Oc1cccc(O)c1O` [PCM-0214990] the value was -12.4%; for `CCO[C@H]1O[C@@H]2O[C@@]3(C)CC[C@H]4[C@H](C)CC[C@@H]([C@H]1C)[C@@]24OO3` [PCM-0214993], -16.3%.
Regarding `O=c1ccc2ccc3occc3c2o1` [PCM-0214995], the inhibition at 10 µM (read-out: BTK inhibition (%)) is -19.3%.
For the compound `COC(=O)/C=C/c1ccc(O)cc1` [PCM-0214996], the inhibition at 10 µM under setting [1] is 0%.
As to `CC1=C[C@@]2(O)O[C@@]3(CC2=C(C)C)[C@@H](C)CC[C@@H]13` [PCM-0214997], under setting [1], the inhibition at 10 µM was 20.7%.
Turning to `COc1cc(O)cc2c1C(=O)C[C@@H](c1ccccc1)O2` [PCM-0214998], the inhibition at 10 µM under setting [1] was -12.5%.
Still for that read-out and setting: for `COc1ccc(-c2cc(=O)c3c(O)c(OC)c(O)c(OC)c3o2)cc1` [PCM-0214999] the value was 80.7%; for `C/C=C(/C)C(=O)O` [PCM-0215002], 14.5%.
On to `C=C1CC[C@@H]2[C@](C)(CO)[C@H](O)CC[C@@]2(C)[C@H]1C/C=C1\C=COC1=O` [PCM-0215003], for which, under setting [1], the inhibition at 10 µM was found to be 14%.
Take `O=c1c2cc(O)c(O)cc2oc2cc(O)c([C@@H]3O[C@H](CO)[C@@H](O)[C@H](O)[C@H]3O)c(O)c12` [PCM-0215004]: the inhibition at 10 µM under setting [1] is -14.8%.
On the same count and under the same terms, for `CC1(C)CCC[C@](C)([C@H]2CC[C@]3(C)[C@@H]2[C@H](O)C[C@@H]2[C@@]4(C)CC[C@H](O)C(C)(C)[C@@H]4[C@H](O)C[C@]23C)O1` [PCM-0215005] the value was -2.8%; for `C[C@@H]1CC[C@@]2(OC1)O[C@H]1C[C@H]3[C@@H]4CC=C5C[C@@H](O[C@@H]6O[C@H](CO)[C@@H](O)[C@H](O[C@@H]7O[C@H](CO)[C@@H](O)[C@H](O)[C@H]7O)[C@H]6O[C@@H]6O[C@@H](C)[C@H](O)[C@@H](O)[C@H]6O)CC[C@]5(C)[C@H]4CC[C@]3(C)[C@H]1[C@@H]2C` [PCM-0215006], -3.1%.
On the same count and under the same terms, for `C[C@@H]1O[C@@H](O[C@H]2[C@H](O[C@H]3CC[C@@]4(C)[C@@H](CC[C@]5(C)[C@@H]4CC=C4[C@@H]6CC(C)(C)CC[C@]6(C(=O)O[C@@H]6O[C@H](CO[C@@H]7O[C@H](CO)[C@@H](O)[C@H](O)[C@H]7O)[C@@H](O)[C@H](O)[C@H]6O)CC[C@]45C)[C@]3(C)CO)OC[C@H](O)[C@@H]2O)[C@H](O)[C@H](O[C@@H]2O[C@H](CO)[C@@H](O[C@@H]3O[C@H](CO)[C@@H](O)[C@H](O)[C@H]3O)[C@H](O)[C@H]2O)[C@H]1O` [PCM-0215007] the value was -12.5%; for `C[C@@H]1O[C@@H](O[C@H]2[C@H](O[C@H]3CC[C@@]4(C)[C@@H](CC[C@]5(C)[C@@H]4CC=C4[C@@H]6CC(C)(C)CC[C@]6(C(=O)O[C@@H]6O[C@H](CO[C@@H]7O[C@H](CO)[C@@H](O[C@@H]8O[C@@H](C)[C@H](O)[C@@H](O)[C@H]8O)[C@H](O)[C@H]7O)[C@@H](O)[C@H](O)[C@H]6O)CC[C@]45C)[C@]3(C)CO)OC[C@H](O)[C@@H]2O)[C@H](O)[C@H](O)[C@H]1O` [PCM-0215008], -10.1%; for `CC(C)(O)[C@@H]1CC[C@](C)([C@H]2[C@@H](O)C[C@@]3(C)[C@@H]4C[C@H](O[C@@H]5O[C@H](CO)[C@@H](O)[C@H](O)[C@H]5O)[C@H]5C(C)(C)[C@@H](O[C@@H]6OC[C@@H](O)[C@H](O)[C@H]6O)CC[C@@]56C[C@@]46CC[C@]23C)O1` [PCM-0215009], 12.5%.
Still for that read-out and setting: for `C[C@H]1CC[C@@]2(O)C(C)(C)[C@@H]3CC[C@@]2(C)[C@H]1C3` [PCM-0215010] the value was 2.8%.
